The target of the experiment is CDK2/Cyclin E1 (Homo sapiens (Human), UniProt P24941). In words: CDK2/Cyclin E1 HTRF enzyme activity assay (Example A). Type of experiment: biochemical. The conditions noted are these: 1 mM ATP. How it is done:
Assays were conducted in white 384-well polystyrene plates in a final reaction volume of 8 μL. […] HTRF signals were read after 1 hour at room temperature on a PHERAstar FS plate reader (BMG Labtech). Data was analyzed with IDBS XLFit and GraphPad Prism 5.0 software using a three or four parameter dose response curve to determine IC50 for each compound.

The values below come from patent publication US11427567B2, “Imidazolyl pyrimidinylamine compounds as CDK2 inhibitors” (Incyte Corporation, priority 2019, dated 2022).

With `CS(=O)(=O)N1CCC(Nc2ncc(C(F)(F)F)c(-c3cn(-c4ccc(CN5CCN6CCCC6C5)cc4Cl)cn3)n2)CC1` (stereo not drawn) [Example 212, 4-(1-(2-Chloro-4-((hexahydropyrrolo-[1,2-a]pyrazin-2(1H)-yl)methyl)phenyl)-1H-imidazol-4-yl)-N-(1-(methylsulfonyl)-piperidin-4-yl)-5-(trifluoromethyl)-pyrimidin-2-amine], the IC50 was no more than 50 nM.

On to `CS(=O)(=O)N1CCC(Nc2ncc(C(F)(F)F)c(-c3cn(-c4ccc(CN5CC6CC5CO6)cc4Cl)cn3)n2)CC1` (stereo not drawn) [Example 213], for which the IC50 was no more than 50 nM.

Take `CS(=O)(=O)N1CCC(Nc2ncc(C(F)(F)F)c(-c3cn(-c4ccc(CN5C6COCC5C6)cc4Cl)cn3)n2)CC1` [Example 214, 4-(1-(4-((3-Oxa-6-azabicyclo[3.1.1]-heptan-6-yl)methyl)-2-chlorophenyl)-1H-imidazol-4-yl)-N-(1-(methylsulfonyl)-piperidin-4-yl)-5-(trifluoromethyl)-pyrimidin-2-amine]: the IC50 was no more than 50 nM.

Consider `CS(=O)(=O)N1CCC(Nc2ncc(C(F)(F)F)c(-c3cn(-c4ccc(CN5C6CCC5COC6)cc4Cl)cn3)n2)CC1` [Example 215, 4-(1-(4-((3-Oxa-8-azabicyclo[3.2.1]-octan-8-yl)methyl)-2-chlorophenyl)-1H-imidazol-4-yl)-N-(1-(methylsulfonyl)-piperidin-4-yl)-5-(trifluoromethyl)-pyrimidin-2-amine], for which the IC50 is no more than 50 nM.

Compound `CS(=O)(=O)N1CCC(Nc2ncc(C(F)(F)F)c(-c3cn(-c4ccc(CN5CC6CCC5CO6)cc4Cl)cn3)n2)CC1` (stereo not drawn) [Example 216, 4-(1-(4-((2-Oxa-5-azabicyclo[2.2.2]-octan-5-yl)methyl)-2-chlorophenyl)-1H-imidazol-4-yl)-N-(1-(methylsulfonyl)-piperidin-4-yl)-5-(trifluoromethyl)-pyrimidin-2-amine] yielded an IC50 of no more than 50 nM.

In turn, `C[C@@H]1CN(S(C)(=O)=O)CC[C@@H]1Nc1ncc(C(F)(F)F)c(-c2cn(-c3ccc(CNCC#N)cc3Cl)cn2)n1` [Example 217, 2-((3-Chloro-4-(4-(2-(((3R,4S)-3-methyl-1-(methylsulfonyl)-piperidin-4-yl)amino)-5-(trifluoromethyl)-pyrimidin-4-yl)-1H-imidazol-1-yl)benzyl)-amino)acetonitrile] gave an IC50 of no more than 50 nM.

`CCNCc1ccc(-n2cnc(-c3nc(N[C@H]4CCN(S(C)(=O)=O)C[C@H]4C)ncc3C(F)(F)F)c2)c(Cl)c1` [Example 218, 4-(1-(2-Chloro-4-((ethylamino)methyl)-phenyl)-1H-imidazol-4-yl)-N-((3R,4S)-3-methyl-1-(methyl-sulfonyl)piperidin-4-yl)-5-(trifluoro-methyl)-pyrimidin-2-amine] yielded an IC50 of no more than 50 nM.

`C[C@@H]1CN(S(C)(=O)=O)CC[C@@H]1Nc1ncc(C(F)(F)F)c(-c2cn(-c3ccc(CN4CCC4)cc3Cl)cn2)n1` [Example 219, 4-(1-(4-(Azetidin-1-ylmethyl)-2-chloro-phenyl)-1H-imidazol-4-yl)-N-((3R,4S)-3-methyl-1-(methyl-sulfonyl)piperidin-4-yl)-5-(trifluoro-methyl)pyrimidin-2-amine] had an IC50 of no more than 50 nM.

The compound `C[C@@H]1CN(S(C)(=O)=O)CC[C@@H]1Nc1ncc(C(F)(F)F)c(-c2cn(-c3ccc(CN(C)C)cc3Cl)cn2)n1` [Example 220, 4-(1-(2-Chloro-4-((dimethylamino)-methyl)phenyl)-1H-imidazol-4-yl)-N-((3R,4S)-3-methyl-1-(methylsulfonyl)-piperidin-4-yl)-5-(trifluoromethyl)-pyrimidin-2-amine] returned an IC50 of no more than 50 nM.

In the case of `C[C@@H]1CN(S(=O)(=O)C2CC2)CC[C@@H]1Nc1ncc(C(F)(F)F)c(-c2cn(-c3ccc(CNC4CC4)cc3Cl)cn2)n1` [Example 221, 4-(1-(2-Chloro-4-((cyclopropylamino)-methyl)phenyl)-1H-imidazol-4-yl)-N-((3R,4S)-1-(cyclo-propylsulfonyl)-3-methylpiperidin-4-yl)-5-(trifluoro-methyl)pyrimidin-2-amine], the IC50 was no more than 50 nM.

`C[C@@H]1CN(S(=O)(=O)C2CC2)CC[C@@H]1Nc1ncc(C(F)(F)F)c(-c2cn(-c3ccc(CN(C)C)cc3Cl)cn2)n1` [Example 222, 4-(1-(2-Chloro-4-((dimethylamino)-methyl)phenyl)-1H-imidazol-4-yl)-N-((3R,4S)-1-(cyclo-propylsulfonyl)-3-methylpiperidin-4-yl)-5-(trifluoro-methyl)pyrimidin-2-amine] yielded an IC50 of no more than 50 nM.

For the compound `CNCc1ccc(-n2cnc(-c3nc(N[C@H]4CCN(S(=O)(=O)C5CC5)C[C@H]4C)ncc3C(F)(F)F)c2)c(Cl)c1` [Example 223, 4-(1-(2-Chloro-4-((methylamino)-methyl)phenyl)-1H-imidazol-4-yl)-N-((3R,4S)-1-(cyclo-propylsulfonyl)-3-methylpiperidin-4-yl)-5-(trifluoro-methyl)pyrimidin-2-amine], the IC50 is no more than 50 nM.

Consider `CC1CN(Cc2ccc(-n3cnc(-c4nc(N[C@H]5CCN(S(C)(=O)=O)C[C@H]5F)ncc4C(F)(F)F)c3)c(Cl)c2)C1` [Example 224, 4-(1-(2-Chloro-4-((3-methylazetidin-1-yl)methyl)phenyl)-1H-imidazol-4-yl)-N-((3R,4S)-3-fluoro-1-(methylsulfonyl)-piperidin-4-yl)-5-(trifluoromethyl)-pyrimidin-2-amine], for which the IC50 is no more than 50 nM.

Compound `CNCc1ccc(-n2cnc(-c3nc(N[C@@H]4CCN(S(C)(=O)=O)C[C@H]4F)ncc3C(F)(F)F)c2)c(Cl)c1` [Example 225, 4-(1-(2-Chloro-4-((methylamino)-methyl)phenyl)-1H-imidazol-4-yl)-N-((3R,4R)-3-fluoro-1-(methylsulfonyl)-piperidin-4-yl)-5-(trifluoromethyl)-pyrimidin-2-amine] registered an IC50 of no more than 50 nM.

In the case of `CNCc1ccc(-n2cnc(-c3nc(NC4CCN(S(C)(=O)=O)CC4)ncc3C#N)c2)c(Cl)c1` [Example 226, 4-(1-(2-Chloro-4-((methylamino)-methyl)phenyl)-1H-imidazol-4-yl)-2-((1-(methylsulfonyl)-piperidin-4-yl)-amino)pyrimidine-5-carbonitrile], the IC50 was no more than 50 nM.

`CNCc1ccc(-n2cnc(-c3nc(NC4CCN(S(C)(=O)=O)CC4)ncc3Cl)c2)c(Cl)c1` [Example 227, 5-Chloro-4-(1-(2-chloro-4-((methyl-amino)methyl)-phenyl)-1H-imidazol-4-yl)-N-(1-(methyl-sulfonyl)piperidin-4-yl)pyrimidin-2-amine]: the IC50 is no more than 50 nM.

With `O=S(=O)(C1CC1)N1CCC(Nc2ncc(C(F)(F)F)c(-c3cn(-c4ccc(CN5CCC5)cc4Cl)cn3)n2)CC1` [Example 228, 4-(1-(4-(Azetidin-1-ylmethyl)-2-chlorophenyl)-1H-imidazol-4-yl)-N-(1-(cyclopropylsulfonyl)piperidin-4-yl)-5-(trifluoromethyl)pyrimidin-2-amine], the IC50 is no more than 50 nM.

As to `CCS(=O)(=O)N1CCC(Nc2ncc(C(F)(F)F)c(-c3cn(-c4ccc(CN5CCC5)cc4Cl)cn3)n2)CC1` [Example 229, 4-(1-(4-(Azetidin-1-ylmethyl)-2-chlorophenyl)-1H-imidazol-4-yl)-N-(1-(ethylsulfonyl)piperidin-4-yl)-5-(trifluoromethyl)pyrimidin-2-amine], the IC50 was no more than 50 nM.
